Data reported in patent US8653304B2, “2,3-dihydro-1H-indene-2-yl urea derivative and pharmaceutical application of same” (Toray Industries, Inc., priority 2009, dated 2014).
Counter-ions that a name gives are not always drawn.

What was measured:
[1] = tested on: Human CYP (Cytochrome P450); assay: Metabolic stability in human CYP (human liver microsomes); format: in vitro ADME; settings: human liver microsomes 0.5 mg/mL, NADPH, 37° C., comparative control compounds 5 μM
Procedure: Each test compound was mixed at a concentration of 2 μM with a phosphate buffer solution containing Human liver microsomes (Xenotech) in an amount of 0.5 mg/mL. Thereafter, NADPH was added thereto, and the obtained mixture was allowed to react at 37° C. for up to 30 minutes. The reaction was terminated by adding acetonitrile, and then the resultant was centrifuged for 10 minutes at 4° C. to collect a supernatant. The supernatant was pretreated by methanol extraction method, and the concentration of the compound was analyzed by LC/MS/MS (ESI positive mode). The compound remaining rate was calculated from the obtained concentration of the compound.

[2] = tested on: U937 cells; assay: Ability to induce drug-induced phospholipidosis (U937, Nile red, flow cytometer); format: cell-based, human; settings: 48 hours, 20 μM, fluorescence intensity compared to valproic acid 300 μM
Procedure: The evaluation of Comparative Compound 4c, which was a comparative control compound, was carried out by a method partially modified from the method described in Cell Biology and Toxicology (2003, Vol. 19, pp. 161-176).
Each test compound was mixed with U937 cells, which are a cell line derived from human monocytes, and the cells were cultured in the presence of 5% CO2 at 37° C. for 48 hours. The cell suspension after the culturing was replaced with a PBS solution containing Nile red (Invitrogen) which is a phospholipid staining solution, and the resulting mixture was allowed to react in the dark at room temperature for 10 minutes. After centrifugal washing with PBS solution, the fluorescence intensity was measured with a flow cytometer (Becton Dickinson) (Excitation Wavelength: 488 nm, Detection Region: 515-545 nm). As a negative control substance, valproic acid (300 μM) was used. […] Each test compound was dissolved in DMSO before use, and the resulting solution was added to the cells such that the final concentration of DMSO was 1%.

- microsomal CLint at 5 μM [1]: 321 µL/min/mg
Compound: Cc1ccc(-n2nc(C(C)(C)C)cc2NC(=O)Nc2ccc(OCCN3CCOCC3)c3ccccc23)cc1 [Comparative Compound 4c, 1-(3-tert-butyl-1-p-tolyl-1H-pyrazol-5-yl)-3-(4-(2-morpholinoethoxy)naphthalen-1-yl)urea.hydrochloride]
- phospholipidosis judgement [2]: positive
